# Measured values reported in US20240287614A1, “RECIPROCAL MICRORNA-MRNA PAIRINGS AS BIOMARKERS AND THERAPEUTIC TARGETS IN CANCER” (UNIVERSITY OF MARYLAND, EASTERN SHORE, priority 2023, published 2024).
# Tests used:
# [1] = system: prostate cancer (LNCaP and PC-3) and prostate cancer (RC77 T/E and MDA PCa 2b) cell lines; assay: BrdU-labeling cell proliferation assay; format: cell-based, human; conditions: PC-3, RC77 T/E and MDA PCa 2b, 48 h transfection, vs NS
# Protocol: […] RC77 T/E, a primary prostate cancer cell line derived from a patient, was kindly provided by Dr. Johng Rhim at Center for Prostate Disease Research (CPDR) in Rockville, MD. LNCaP and PC-3 were served as prostate cancer cell line models, and RC77 T/E and MDA PCa 2b were served as prostate cancer cell models in the study. The cells were cultured in specific cell culture media, LNCaP was cultured in RPMI with 10% fetal bovine serum (FBS), PC-3 was cultured in DMEM with 10% FBS, MDA PCa 2b were cultured in BRFF-HPC1 with 20% FBS and RC77 T/E was cultured in Keratinocyte SFM with Human Recombinant Epidermal Growth Factor (EGF 1-53) and Bovine Pituitary Extract (BPE). Cells were maintained at 37° C. in a 5% CO2 incubator. LNCaP, PC-3 and MDA PCa 2b cells were seeded at density 3×10^4 cells/well in 6-well plates. RC77 T/E cells were seeded at density 5×10^4 cells/well in 6-well plates. […]
# LNCaP, PC-3, RC77 T/E and MDA PCa 2b cells were seeded at density 3×10^4 cells/well in 6-well culture plates. […] 100 μL of stop solution was used to stop further reaction and followed by checking absorbance at dual wavelengths of 450 nm and 540 nm using Multiskan FC microplate photometer (Thermo Scientific).
# mTOR and pmTOR = assay: Western blot of mTOR and pmTOR in cytoplasmic and nuclear fractions of colon, breast and lung cancer cells; format: cell-based, human; conditions: breast, lung cancer cells
# Source text: The human cell lines used in the study included: 22Rv1, LNCaP, PC-3, RC77 T/E and MDA PCa 2b (prostate cancer cell lines), MDA MB 231 and MCF-7 (breast cancer cell lines), HT-29 and SW620 (colon cancer cell lines), A549 and H1299 (lung cancer cell lines). RWPE-1, HMEC, FHC, and BEAS-2B were used as normal control cell lines for prostate, breast, colon, and lung, respectively. Note that 22Rv1 is a castration-resistant […] prostate cancer cell line, while LNCaP and PC-3 were derived from lymph node and bone metastasis of […] prostate cancer patients, respectively. RC77 T/E was derived from a primary prostate cancer patient, and MDA PCa 2b was derived from bone metastasis of an prostate cancer patient. The cell lines described were used as in vitro cell models to evaluate the functional roles of miR-99b-5p/MTOR pairing in the […] prostate cancer, African American prostate cancer and solid tumors in general. The cells were grown in specific cell culture media described as follows: 22Rv1, LNCaP, MCF-7 and H1299 were cultured in RPMI-1640 with 10% fetal bovine serum (FBS), PC-3, A549 and FHC were cultured in DMEM with 10% FBS, RC77 T/E was cultured in Keratinocyte SFM with human recombinant epidermal growth factor (EGF) and bovine pituitary extract (BPE), MDA PCa 2b were cultured in BRFF-HPC1 with 20% FBS, HT-29 was cultured in McCory's with 10% FBS, SW620 and MDA MB 231 were cultured in L-15 with 10% FBS, HMEC was cultured in mammary epithelial cell basal medium with supplements, and BEAS-2B was cultured in BEBM base medium with BEBM supplement kit. Cells were maintained at 37° C. in a 5% CO2 incubator.
# The 22Rv1, LNCaP, PC-3, MDA PCa 2b, MCF7, H1299, A549, HT-29, SW620, MDA MB-231, HMEC and BEAS-2B cells were seeded at a density of 3×10^5 cells/well in 6-well plates. RC77 T/E cells were seeded at a density of 5×10^5 cells/well in 6-well plates. The cells were grown for 24 h and then transfected with nonsense/scrambled RNA (NS) and miR-99b-5p mimic (Ambion) using DharmaFECT4 transfection reagent (Dharmacon). After 24 h, fresh media were applied to replace the transfection reagent-containing media, then the cells were incubated for an additional 24 h.
# The total proteins were extracted using M-PER extraction reagent with protease and phosphatase inhibitor cocktail (Thermo Fisher Scientific) according to manufacturer's protocol. […] Equal amounts of proteins were used based on the quantification using BCA assay kit (Thermo Fisher Scientific), and the samples were separated by electrophoresis using NuPAGE 4-12% or 8% Bis-Tris gels (Invitrogen). […] The results were analyzed with SuperSignal ECL substrates (Thermo Fisher Scientific) and a ChemiDoc XRS system (Bio-Rad). […]
substance,measurement,setting,value
"miR-99b-5p mimic: miRNA mimic of miR-99b-5p (SEQ ID NO: 2, CACCCGUAGAACCGACCUUGCG), purchased from Ambion (listed as RNA, chemistry not given here; listed as Homo sapiens)",cell proliferation (BrdU labeling),[1],reduction
same,nuclear mTOR expression (Western blot),mTOR and pmTOR; miR-99b-5p vs NS transfected,significant decrease
same,nuclear pmTOR expression (Western blot),mTOR and pmTOR; miR-99b-5p vs NS transfected,significant decrease
same,"total mTOR (combined cytoplasmic and nuclear mTOR, Western blot)",mTOR and pmTOR; miR-99b-5p vs NS transfected,generalized reduction
same,cytoplasmic mTOR (Western blot),mTOR and pmTOR; upon miR-99b-5p transfection,slight to no decrease
